The record followed here is patent publication US10004716B2, “Therapeutic/ preventive agent containing coumarin derivative as active ingredient” (NIPPON ZOKI PHARMACEUTICAL CO., LTD., priority 2014, dated 2018).

For assay [1], the system named is CTGF gene expression. In words: Evaluation II: TGF-β-induced gene expression of fibrosis-related factors in NHLF cells: CTGF. The assay is classed as cell-based, human. The note with it: 30 μM test substance, 200 μg/mL pirfenidone, 30 μM DEX, 1.0 μM TPCA-1 or 10 μM FP 2 hours, then TGF-β 0.5 ng/mL 4 hours, n = 4. As for the experimental part: (§1) NHLF cells were sown so as to make their amount 5×10^4 cells/well to each well of a 12-well plate and incubated to an extent of 80% confluent in a medium where fibroblast growth medium 2 supplement mix (FGM-2 SingleQuots, Lonza) was added to a fibroblast basal medium (FBM, Lonza). After that, incubation was conducted for 2 hours in a DMEM medium containing 30 μM of a test substance, 200 μg/mL of pirfenidone, 30 μM of dexamethasone (DEX), 1.0 μM of TPCA-1 or 10 μM of fluticasone propionate (FP) and, after TGF-β was added thereto so as to make its final concentration 0.5 ng/mL, incubation was carried out for 4 hours more.
(§2) With regard to the extraction of RNA from NHLF cells, the synthesis of cDNA from RNA and the action of the test substance to gene expression of fibrosis-related factors [CFGF, TGF-β1, fibronectin and Col 1], the tests were carried out in the same manners as in (2) and (3) of the above Test Example 3.

Assay [2] has as its system fibronectin gene expression. Put plainly: Evaluation II: TGF-β-induced gene expression of fibrosis-related factors in NHLF cells: fibronectin. The assay is classed as cell-based, human. The note with it: 30 μM test substance, 200 μg/mL pirfenidone, 30 μM DEX, 1.0 μM TPCA-1 or 10 μM FP 2 hours, then TGF-β 0.5 ng/mL 4 hours, n = 4. As for the experimental part: as §1, §2

Assay [3] relates to TGF-β1 gene expression. In words: Evaluation II: TGF-β-induced gene expression of fibrosis-related factors in NHLF cells: TGF-β1. Conditions: 30 μM test substance, 200 μg/mL pirfenidone, 30 μM DEX, 1.0 μM TPCA-1 or 10 μM FP 2 hours, then TGF-β 0.5 ng/mL 4 hours, n = 4. In kind it is cell-based, human. As for the experimental part:
as §1, §2

The subject of assay [4] is Col 1 gene expression. Put plainly: Evaluation II: TGF-β-induced gene expression of fibrosis-related factors in NHLF cells: Col 1. In kind it is cell-based, human. The note with it: 30 μM test substance, 200 μg/mL pirfenidone, 30 μM DEX, 1.0 μM TPCA-1 or 10 μM FP 2 hours, then TGF-β 0.5 ng/mL 4 hours, n = 4. As for the experimental part:
as §1, §2

Assay [5] concerns mice where pulmonary fibrosis was induced by bleomycin. Put plainly: Lung wet weight increase of mice where pulmonary fibrosis was induced by bleomycin. The note with it: ICR male mice, bleomycin 2 mg/kg i.v. 5 days; test substance 50 mg/kg or pirfenidone 200 mg/kg per os twice daily for 2 weeks; normal control 205, diseased control 303. The assay is classed as in vivo. As for the experimental part: Bleomycin (2 mg/kg) was repeatedly injected intravenously for 5 days to ICR male mice. The mice were organized into 4 groups of normal control group, diseased control group, test substance-administered group and pirfenidone-administered group.
A test substance was suspended in 0.5 w/v % carboxymethyl cellulose sodium (CMC) and 50 mg/kg thereof was repeatedly administered per os with stirring twice daily for 2 weeks using an oral sonde for rats. Pirfenidone was suspended in 0.5 w/v % CMC and 200 mg/kg thereof was repeatedly administered per os with stirring twice daily for 2 weeks using an oral sonde for rats. To the normal control group and the diseased control group, 0.5 w/v % CMC was repeatedly administered per os according to the same administration schedule. After finishing the administration period, both lungs were excised from the mice and their wet weight was measured.

Consider `O=c1oc2c(OS(=O)(=O)c3ccc(C(F)(F)F)cc3)cccc2cc1NS(=O)(=O)c1cccc(Br)c1` [Compound 58, 3-[(3-Bromophenyl)sulfonylamino]-2-oxochromen-8-yl 4-(trifluoromethyl)benzenesulfonate], for which the “Copy Numbers per 10000 Copies of GAPDH CTGF” value in assay [1] is 115.8 copies per 10000 copies of GAP. Further, the “Copy Numbers per 10000 Copies of GAPDH Fibronectin” value in assay [2] is 1827.5 copies per 10000 copies of GAP. The “Copy Numbers per 10000 Copies of GAPDH TGF-β1” value in assay [3] was 704.5 copies per 10000 copies of GAP. Also, the “Copy Numbers per 10000 Copies of GAPDH Col 1” value in assay [4] is listed as 525.6 copies per 10000 copies of GAP.
For `O=c1oc2c(OS(=O)(=O)c3cccc(Br)c3)cccc2cc1NS(=O)(=O)c1cccc(C(F)(F)F)c1` [Compound 60, 2-Oxo-3-[[3-(trifluoromethyl)phenyl]sulfonylamino]-chromen-8-yl 3-bromobenzenesulfonate], the “Copy Numbers per 10000 Copies of GAPDH CTGF” value in assay [1] was 119.0 copies per 10000 copies of GAP. Further, in assay [2], the “Copy Numbers per 10000 Copies of GAPDH Fibronectin” value is recorded as 1446.2 copies per 10000 copies of GAP. For the same compound, the “Copy Numbers per 10000 Copies of GAPDH TGF-β1” value in assay [3] was 707.1 copies per 10000 copies of GAP. The “Copy Numbers per 10000 Copies of GAPDH Col 1” value in assay [4] is on record as 650.6 copies per 10000 copies of GAP. The compound further registered a Wet Lung Weight in assay [5] of 250 mg.
